# Like-named read-outs stand apart in the source and are kept apart here.
# Tests used:
# [1] = system: Collagen-Induced Arthritis (CIA) Model in Rats; experiment: In vivo efficacy in collagen-induced arthritis (CIA) model in rats; parameters: species or system Lewis rats; Mean arthritis score: scale not given here
# Protocol: Experimental Example 4: In Vivo Efficacy in Collagen-Induced Arthritis (CIA) Model in Rats
# A mixed emulsion of bovine type II collagen and incomplete Freund's adjuvant 1:1 was injected at the back and the tail tip (3 sites) in Lewis rats. After 14 days, the paw thickness and paw volume of the rats were measured, and the arthritis development was scored. The day before the administration was set as DO, the animals were grouped based on paw volume, and the test compounds (vehicle: 5% DMSO+5% solutol) were gavage administered once a day for two weeks. The paw thickness and paw volume of the rats were measured, and the arthritis development was scored.
# [2] = Pharmacokinetic study in Rhesus monkeys, intravenous (IV) administration; assay type: in vivo; settings: male, rhesus monkey, plasma, IV administration at 0.5 mg/kg
# Protocol: (§1) To study the pharmacokinetic characteristics of test compounds, the test compounds were administrated by an intravenous (IV) route to male Rhesus monkeys. The dosage for IV administration was 0.5 mg/kg. Blood was collected at various time points after the IV administration. Plasma samples were analyzed by LC-MS/MS after protein precipitation process with acetonitrile. Pharmacokinetic parameters were calculated with a non-compartmental model by using WinNonlin 6.3 software.
# [3] = Pharmacokinetic study in Rhesus monkeys, gavage (PO) administration; assay type: in vivo; settings: male, rhesus monkey, plasma, PO administration at 1 mg/kg; for AUC(0-t): 0-24 h; for half-life: read-out: T½ (converted)
# Protocol: as §1, with “a gavage (PO)” for “an intravenous (IV)”, “PO” for “IV”, “1” for “0.5”
# [4] = Pharmacokinetic study in rats, gavage (PO) administration; assay type: in vivo; settings: male, SD, rat, plasma; for AUC(0-t): po, gavage administration at 5 mg/kg, 0-24 h
# Protocol: (§2) Experimental Example 3: Pharmacokinetic Studies
# (§3) To study the pharmacokinetic characteristics of test compounds, the test compounds were administrated by intravenous (IV) and gavage (PO) routes to male SD rats. The dosage for IV administration was 1 mg/kg, and that for PO administration was 0.5-5 mg/kg. The vehicle is 10% DMSO: 10% solutol: 80% physiological saline, or 5% DMSO: 5% solutol: 90% physiological saline, or 10% DMSO: 60% PEG: 30% physiological saline. Blood was collected at various time points after administration. Plasma samples were analyzed by LC-MS/MS after protein precipitation process with acetonitrile.
# [5] = Pharmacokinetic study in rats, intravenous (IV) administration; assay type: in vivo; settings: male, SD, rat, plasma, IV administration at 1 mg/kg; for AUC(0-t): 0-24 h; for half-life: read-out: T½ (converted)
# Protocol: as §2, §3
# CYP2D6 = CYP2D6 (Homo sapiens (Human), UniProt P10635); experiment: CYP450 enzyme test, Vivid CYP2D6 Cyan screening kit; assay type: in vitro ADME
# From the text: (§4) CYP450 is the most important enzymatic system in drug metabolism. The enzymes involved in the metabolism interact with a drug, and mainly include CYP1A2, CYP2D6 and CYP3A4. In the CYP450 enzyme test, P450-Glo™ CYP1A2 screening system was employed to determine the inhibitory activity of compounds on CYP1A2 and CYP3A4. The Vivid® CYP2D6 Cyan screening kit was employed to determine the inhibitory activity of test compounds on CYP2D6.
# JAK2 = JAK2 (Homo sapiens (Human), UniProt O60674); experiment: JAK2 enzymatic inhibition assay (ADP-Glo luminescence); assay type: biochemical
# Protocol: (§6) Test Materials • JAK1, JAK2, JAK3 and TYK2 enzymes were purchased from Life Technologies; and substrate GFP-STAT1 was purchased from Life Technologies.
# (§7) Test compounds, enzymes, the substrate and ATP were diluted to the desired concentrations with the assay buffer (40 mM Tris-HCl, pH 7.4, 20 mM MgCl2, 0.1% BSA). The former three were added into a multiple well plate, and incubated at room temperature after being mixed homogeneously. ATP was added to initiate the kinase reaction, and incubation at room temperature was performed. ADP-Glo was added, and incubation at room temperature was performed. The kinase detector reagent was then added, and incubation at room temperature was performed. The luminescence intensity of each test group was detected, and the half maximal inhibitory concentration (IC50) value was calculated.
# hERG potassium channel = hERG potassium channel (Homo sapiens (Human), UniProt Q12809); experiment: Predictor hERG Fluorescence Polarization Assay; assay type: binding; settings: tested at 3, 10 and 30 μM
# Protocol: Experimental Example 2: Safety Test
# The effect of test compounds on hERG potassium channel were determined using Predictor™ hERG Fluorescence Polarization Assay at concentrations of 3, 10, and 30 μM.
# JAK3 = JAK3 (Homo sapiens (Human), UniProt P52333); experiment: JAK3 enzymatic inhibition assay (ADP-Glo luminescence); assay type: biochemical
# From the text: (§5) Experimental Example 1: JAK1, JAK2, JAK3 and TYK2 Enzymatic Inhibition Assay
# CYP3A4 = CYP3A4 (Homo sapiens (Human), UniProt P08684); experiment: CYP450 enzyme test, P450-Glo screening system, CYP3A4; assay type: in vitro ADME
# From the text: as §4
# JAK1 = JAK1 (Homo sapiens (Human), UniProt P23458); experiment: JAK1 enzymatic inhibition assay (ADP-Glo luminescence); assay type: biochemical
# Protocol: as §6, §7
# CYP1A2 = CYP1A2 (Homo sapiens (Human), UniProt P05177); experiment: CYP450 enzyme test, P450-Glo screening system, CYP1A2; assay type: in vitro ADME
# From the text: as §4
# TYK2 = TYK2 (Homo sapiens (Human), UniProt P29597); experiment: TYK2 enzymatic inhibition assay (LanthaScreen TR-FRET); assay type: biochemical
# Protocol: as §5
# As for the TYK2 enzyme, Tb-anti-pSTAT1 was added, and incubation at room temperature was performed.
# [6] = D0 (day before administration), 10 mg/kg group
# [7] = D11, 10 mg/kg gavage once a day
# [8] = D15, 10 mg/kg gavage once a day
# Chain of JAK3 (P52333 whole entry): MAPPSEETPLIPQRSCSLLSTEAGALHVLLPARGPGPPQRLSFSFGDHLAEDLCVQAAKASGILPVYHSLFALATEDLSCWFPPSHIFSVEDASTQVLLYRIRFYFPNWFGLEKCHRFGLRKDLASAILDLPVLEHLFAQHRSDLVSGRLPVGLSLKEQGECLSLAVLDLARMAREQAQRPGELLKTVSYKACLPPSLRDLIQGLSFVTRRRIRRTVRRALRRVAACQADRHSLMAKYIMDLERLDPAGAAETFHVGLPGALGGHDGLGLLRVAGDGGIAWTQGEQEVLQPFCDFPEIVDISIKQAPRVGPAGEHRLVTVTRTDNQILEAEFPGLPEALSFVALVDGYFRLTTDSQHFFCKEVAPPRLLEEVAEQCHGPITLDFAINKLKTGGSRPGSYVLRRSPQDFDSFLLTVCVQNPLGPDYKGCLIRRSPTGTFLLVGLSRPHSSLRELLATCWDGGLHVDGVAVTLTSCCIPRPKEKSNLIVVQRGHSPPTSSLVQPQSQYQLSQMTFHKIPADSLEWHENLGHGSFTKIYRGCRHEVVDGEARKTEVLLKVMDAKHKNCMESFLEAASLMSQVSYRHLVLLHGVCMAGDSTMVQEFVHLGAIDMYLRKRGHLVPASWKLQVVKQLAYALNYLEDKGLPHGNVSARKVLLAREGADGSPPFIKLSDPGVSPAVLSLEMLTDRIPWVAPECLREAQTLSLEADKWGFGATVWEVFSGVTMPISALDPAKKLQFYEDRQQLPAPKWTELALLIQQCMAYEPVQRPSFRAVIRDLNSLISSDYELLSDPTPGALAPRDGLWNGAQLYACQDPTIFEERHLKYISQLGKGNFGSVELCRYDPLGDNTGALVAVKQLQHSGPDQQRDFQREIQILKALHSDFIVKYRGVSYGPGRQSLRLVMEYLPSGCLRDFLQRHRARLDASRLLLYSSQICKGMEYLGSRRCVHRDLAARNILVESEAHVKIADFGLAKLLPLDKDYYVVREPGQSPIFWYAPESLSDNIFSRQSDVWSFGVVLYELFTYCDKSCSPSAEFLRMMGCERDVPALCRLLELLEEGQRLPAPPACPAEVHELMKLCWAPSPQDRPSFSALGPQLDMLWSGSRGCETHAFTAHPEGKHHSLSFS
# Chain of JAK1 (P23458 whole entry): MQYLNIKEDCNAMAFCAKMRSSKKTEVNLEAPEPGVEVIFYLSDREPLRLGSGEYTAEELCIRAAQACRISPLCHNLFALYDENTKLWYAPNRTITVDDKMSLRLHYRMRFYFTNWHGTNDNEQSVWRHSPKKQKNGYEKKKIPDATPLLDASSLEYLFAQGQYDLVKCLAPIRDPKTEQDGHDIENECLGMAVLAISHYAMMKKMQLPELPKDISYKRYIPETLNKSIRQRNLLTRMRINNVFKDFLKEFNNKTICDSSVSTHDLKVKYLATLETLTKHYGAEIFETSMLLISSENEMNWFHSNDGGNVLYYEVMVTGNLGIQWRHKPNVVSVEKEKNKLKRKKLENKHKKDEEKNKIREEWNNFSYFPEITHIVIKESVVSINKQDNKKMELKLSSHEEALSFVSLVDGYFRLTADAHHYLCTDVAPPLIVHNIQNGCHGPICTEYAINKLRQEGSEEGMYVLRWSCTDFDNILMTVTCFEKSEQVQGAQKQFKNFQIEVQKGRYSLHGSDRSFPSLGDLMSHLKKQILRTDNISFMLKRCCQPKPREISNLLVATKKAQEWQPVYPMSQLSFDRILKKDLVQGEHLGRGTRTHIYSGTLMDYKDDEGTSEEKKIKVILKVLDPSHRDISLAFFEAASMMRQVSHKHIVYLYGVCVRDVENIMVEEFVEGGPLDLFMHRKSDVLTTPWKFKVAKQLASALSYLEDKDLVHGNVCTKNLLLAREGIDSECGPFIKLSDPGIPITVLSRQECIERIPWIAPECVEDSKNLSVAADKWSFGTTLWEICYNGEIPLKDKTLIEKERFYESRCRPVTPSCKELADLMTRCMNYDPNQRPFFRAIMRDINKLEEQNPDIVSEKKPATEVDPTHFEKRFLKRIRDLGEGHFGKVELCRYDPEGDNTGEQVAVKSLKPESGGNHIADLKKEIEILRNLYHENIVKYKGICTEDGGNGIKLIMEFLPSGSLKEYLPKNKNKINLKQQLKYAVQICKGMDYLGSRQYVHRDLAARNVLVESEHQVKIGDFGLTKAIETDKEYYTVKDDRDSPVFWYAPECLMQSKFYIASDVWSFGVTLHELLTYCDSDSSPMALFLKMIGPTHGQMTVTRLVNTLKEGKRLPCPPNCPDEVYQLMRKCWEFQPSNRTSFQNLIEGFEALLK
# Chain of hERG potassium channel (Q12809 whole entry): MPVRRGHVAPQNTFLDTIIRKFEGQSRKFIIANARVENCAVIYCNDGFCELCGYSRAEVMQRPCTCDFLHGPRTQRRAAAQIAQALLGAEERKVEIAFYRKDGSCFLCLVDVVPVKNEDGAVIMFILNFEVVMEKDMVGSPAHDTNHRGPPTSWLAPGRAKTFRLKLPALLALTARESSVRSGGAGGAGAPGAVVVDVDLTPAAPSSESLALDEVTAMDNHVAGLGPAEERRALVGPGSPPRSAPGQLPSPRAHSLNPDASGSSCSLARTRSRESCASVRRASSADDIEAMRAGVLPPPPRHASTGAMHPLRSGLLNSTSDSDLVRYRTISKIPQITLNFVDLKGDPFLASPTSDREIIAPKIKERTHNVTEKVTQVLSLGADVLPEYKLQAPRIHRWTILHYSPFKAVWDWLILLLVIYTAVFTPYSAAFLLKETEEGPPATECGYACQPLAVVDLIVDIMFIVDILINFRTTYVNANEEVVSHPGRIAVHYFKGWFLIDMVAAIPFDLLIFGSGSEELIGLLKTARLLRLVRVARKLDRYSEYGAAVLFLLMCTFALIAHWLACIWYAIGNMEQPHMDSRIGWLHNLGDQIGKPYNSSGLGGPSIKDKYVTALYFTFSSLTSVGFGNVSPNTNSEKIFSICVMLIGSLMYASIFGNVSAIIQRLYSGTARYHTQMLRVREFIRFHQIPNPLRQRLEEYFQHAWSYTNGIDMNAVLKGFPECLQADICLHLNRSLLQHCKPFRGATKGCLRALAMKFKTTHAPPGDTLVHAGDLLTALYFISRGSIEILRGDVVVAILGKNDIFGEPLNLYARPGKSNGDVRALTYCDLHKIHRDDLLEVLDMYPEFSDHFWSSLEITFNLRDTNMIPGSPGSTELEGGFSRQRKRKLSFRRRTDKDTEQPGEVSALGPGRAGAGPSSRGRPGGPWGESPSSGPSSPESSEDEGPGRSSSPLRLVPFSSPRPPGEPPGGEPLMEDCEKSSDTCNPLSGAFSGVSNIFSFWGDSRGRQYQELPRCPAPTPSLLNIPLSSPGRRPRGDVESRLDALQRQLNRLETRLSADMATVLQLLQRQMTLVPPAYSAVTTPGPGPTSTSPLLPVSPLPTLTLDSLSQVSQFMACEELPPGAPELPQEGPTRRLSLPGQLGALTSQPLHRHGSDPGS
# Chain of CYP2D6 (P10635 whole entry): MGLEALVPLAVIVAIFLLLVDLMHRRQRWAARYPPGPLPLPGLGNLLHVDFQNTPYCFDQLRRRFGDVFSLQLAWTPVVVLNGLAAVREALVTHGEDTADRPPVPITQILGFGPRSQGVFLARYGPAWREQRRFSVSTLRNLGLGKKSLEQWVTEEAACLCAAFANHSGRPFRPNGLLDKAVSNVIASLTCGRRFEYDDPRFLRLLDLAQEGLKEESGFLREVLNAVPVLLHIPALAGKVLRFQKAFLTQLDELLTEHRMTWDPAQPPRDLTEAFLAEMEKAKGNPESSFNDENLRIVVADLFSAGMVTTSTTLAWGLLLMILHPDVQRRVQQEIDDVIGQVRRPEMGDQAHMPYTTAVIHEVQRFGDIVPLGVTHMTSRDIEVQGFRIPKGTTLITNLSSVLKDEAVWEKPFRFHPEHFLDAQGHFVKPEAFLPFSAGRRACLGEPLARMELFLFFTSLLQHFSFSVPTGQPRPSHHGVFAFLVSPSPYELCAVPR
# Chain of TYK2 (P29597 whole entry): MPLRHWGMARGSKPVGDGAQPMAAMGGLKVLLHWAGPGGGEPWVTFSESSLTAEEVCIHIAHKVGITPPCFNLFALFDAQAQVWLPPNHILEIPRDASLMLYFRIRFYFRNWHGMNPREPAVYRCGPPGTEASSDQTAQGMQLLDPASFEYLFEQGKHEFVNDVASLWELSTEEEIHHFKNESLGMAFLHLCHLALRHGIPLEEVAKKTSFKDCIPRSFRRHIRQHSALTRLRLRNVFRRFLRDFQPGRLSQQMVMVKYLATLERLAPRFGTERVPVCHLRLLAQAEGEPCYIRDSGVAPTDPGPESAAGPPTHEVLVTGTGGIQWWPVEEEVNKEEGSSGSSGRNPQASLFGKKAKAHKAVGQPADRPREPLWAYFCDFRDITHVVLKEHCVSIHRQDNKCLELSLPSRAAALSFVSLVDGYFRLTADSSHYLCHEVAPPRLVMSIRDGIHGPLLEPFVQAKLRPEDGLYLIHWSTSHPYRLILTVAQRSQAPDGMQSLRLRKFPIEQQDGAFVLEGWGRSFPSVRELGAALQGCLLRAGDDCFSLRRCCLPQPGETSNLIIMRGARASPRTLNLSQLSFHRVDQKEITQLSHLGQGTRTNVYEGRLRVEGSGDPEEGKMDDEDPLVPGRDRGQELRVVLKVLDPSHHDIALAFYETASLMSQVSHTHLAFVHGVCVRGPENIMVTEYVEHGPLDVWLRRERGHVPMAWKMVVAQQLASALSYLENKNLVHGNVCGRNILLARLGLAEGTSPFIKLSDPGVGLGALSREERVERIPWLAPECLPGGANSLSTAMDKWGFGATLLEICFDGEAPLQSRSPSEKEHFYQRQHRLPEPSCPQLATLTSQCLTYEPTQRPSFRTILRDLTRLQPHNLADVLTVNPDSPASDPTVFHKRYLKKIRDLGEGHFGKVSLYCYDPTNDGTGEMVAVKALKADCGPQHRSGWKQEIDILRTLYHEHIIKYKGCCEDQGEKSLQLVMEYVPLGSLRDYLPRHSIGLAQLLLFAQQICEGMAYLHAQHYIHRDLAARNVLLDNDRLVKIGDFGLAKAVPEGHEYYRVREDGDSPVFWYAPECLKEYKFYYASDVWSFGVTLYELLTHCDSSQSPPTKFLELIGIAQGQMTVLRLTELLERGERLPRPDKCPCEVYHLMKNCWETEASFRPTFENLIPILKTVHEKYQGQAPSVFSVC
smiles,measurement,setting,value
"CCS(=O)(=O)N1CC(CC#N)(n2cc(-c3ncnc4[nH]ccc34)cn2)C1 [Baricitinib, reference compound]",Mean arthritis score,[1]; [6],3.00
same,Mean paw thickness (mm),[1]; [6],7.17 mm
same,Mean paw volume,[1]; [6],1.71 mL
same,Mean arthritis score,"[1]; D4, 10 mg/kg gavage once a day",2.25
same,Mean paw thickness (mm),"[1]; D4, 10 mg/kg gavage once a day",6.67 mm
same,Mean paw volume,"[1]; D4, 10 mg/kg gavage once a day",1.55 mL
same,Mean arthritis score,"[1]; D7, 10 mg/kg gavage once a day",1.38
same,Mean paw thickness (mm),"[1]; D7, 10 mg/kg gavage once a day",6.47 mm
same,Mean paw volume,"[1]; D7, 10 mg/kg gavage once a day",1.47 mL
same,Mean arthritis score,[1]; [7],1.75
same,Mean paw thickness (mm),[1]; [7],6.36 mm
same,Mean paw volume,[1]; [7],1.48 mL
same,Mean arthritis score,[1]; [8],1.88
same,Mean paw thickness (mm),[1]; [8],6.21 mm
same,Mean paw volume,[1]; [8],1.59 mL
same,half-life,[2],1.38 h
same,bioavailability,[3],26.3%
same,AUC(0-t),[3],0.994 µg·h/mL
same,half-life,[3],1.96 h
same,bioavailability,"[4]; PO administration at 0.5-5 mg/kg, read-out: bioavailability (F %)",55%
same,half-life,"[4]; PO administration at 0.5-5 mg/kg, read-out: half-life (T1/2) (converted)",1.58 h
same,AUC(0-t),[4],3.05 µg·h/mL
same,AUC(0-t),[5],0.505 µg·h/mL
same,half-life,[5],0.946 h
"CC(C)S(=O)(=O)N1CC(CC#N)(n2cc(-c3c(C#N)cnc4[nH]ccc34)cn2)C1 [Compound 43, 4-(1-(3-(cyanomethyl)-1-(isopropylsulfonyl)azetidin-3-yl)-1H-pyrazol-4-yl)-1H-pyrrolo[2,3-b]pyridine-5-carbonitrile]",IC50,CYP2D6,> 10 µM
same,IC50,JAK2,2.54 nM
same,IC50,hERG potassium channel,> 30 µM
same,IC50,JAK3,10 to 30 nM
same,IC50,CYP3A4,> 10 µM
same,IC50,JAK1,0.55 nM
same,IC50,CYP1A2; read-out: IC50 (μM) CYP1A2,> 10 µM
same,IC50,TYK2,> 30 nM
"CS(=O)(=O)N1CC(CC#N)(n2cc(-c3ccnc4[nH]ccc34)cn2)C1 [Compound 19, 2-(3-(4-(1H-pyrrolo[2,3-b]pyridin-4-yl)-1H-pyrazol-1-yl)-1-(methylsulfonyl)azetidin-3-yl)acetonitrile]",IC50,CYP2D6,> 10 µM
same,IC50,hERG potassium channel,> 30 µM
same,IC50,JAK3,10.3 nM
same,IC50,CYP3A4,> 10 µM
same,IC50,JAK1,0.69 nM
same,AUC(0-t),[4],5.03 µg·h/mL
same,IC50,CYP1A2; human,> 10 µM
same,AUC(0-t),[5],1.39 µg·h/mL
same,half-life,[5],7.1 h
"CCS(=O)(=O)N1CC(CC#N)(n2cc(-c3c(C#N)cnc4[nH]ccc34)cn2)C1 [Compound 5, 4-(1-(3-(cyanomethyl)-1-(ethylsulfonyl)azetidin-3-yl)-1H-pyrazol-4-yl)-1H-pyrrolo[2,3-b]pyridine-5-carbonitrile]",IC50,CYP2D6,> 10 µM
same,IC50,JAK2,1.49 nM
same,IC50,hERG potassium channel,> 30 µM
same,IC50,JAK3,33.8 nM
same,IC50,CYP3A4,> 10 µM
same,AUC(0-t),[4],3.15 µg·h/mL
same,IC50,CYP1A2; human,> 10 µM
same,AUC(0-t),[5],0.834 µg·h/mL
same,half-life,[5],0.997 h
same,IC50,TYK2,27 nM
"CCS(=O)(=O)N1CC(CC#N)(n2cc(-c3ncnc4[nH]ccc34)cc2C#N)C1 [Compound 39, 1-(3-(cyanomethyl)-1-(ethylsulfonyl)azetidin-3-yl)-4-(7H-pyrrolo[2,3-d]pyrimidin-4-yl)-1H-pyrrole-2-carbonitrile]",IC50,CYP2D6,> 10 µM
same,IC50,JAK2,0.69 nM
same,IC50,hERG potassium channel,> 30 µM
same,IC50,JAK3,10 to 30 nM
same,IC50,CYP3A4,> 10 µM
same,IC50,CYP1A2; human,> 10 µM
same,half-life,[5],1.67 h
"CCS(=O)(=O)N1CC(CC#N)(n2cc(-c3ccnc4[nH]ccc34)cn2)C1 [Compound 8, 2-(3-(4-(1H-pyrrolo[2,3-b]pyridin-4-yl)-1H-pyrazol-1-yl)-1-(ethylsulfonyl)azetidin-3-yl)acetonitrile]",Mean arthritis score,[1]; [6],2.63
same,Mean paw thickness (mm),[1]; [6],7.18 mm
same,Mean paw volume,[1]; [6],1.71 mL
same,Mean arthritis score,"[1]; D4, 10 mg/kg gavage once a day",1.38
same,Mean paw thickness (mm),"[1]; D4, 10 mg/kg gavage once a day",6.04 mm
same,Mean paw volume,"[1]; D4, 10 mg/kg gavage once a day",1.47 mL
same,Mean arthritis score,"[1]; D7, 10 mg/kg gavage once a day",1.00
same,Mean paw thickness (mm),"[1]; D7, 10 mg/kg gavage once a day",5.67 mm
same,Mean paw volume,"[1]; D7, 10 mg/kg gavage once a day",1.41 mL
same,Mean arthritis score,[1]; [7],1.00
same,Mean paw thickness (mm),[1]; [7],5.56 mm
same,Mean paw volume,[1]; [7],1.42 mL
same,Mean arthritis score,[1]; [8],1.13
same,Mean paw thickness (mm),[1]; [8],5.52 mm
same,Mean paw volume,[1]; [8],1.48 mL
same,half-life,[2],5.29 h
same,IC50,hERG potassium channel,> 30 µM
same,IC50,JAK3,47.9 nM
same,bioavailability,[3],78.6%
same,AUC(0-t),[3],2.6 µg·h/mL
same,half-life,[3],2.68 h
same,AUC(0-t),[4],14.1 µg·h/mL
same,AUC(0-t),[5],2.65 µg·h/mL
same,half-life,[5],3.93 h
same,IC50,TYK2,27.3 nM
"CC(C)CS(=O)(=O)N1CC(CC#N)(n2cc(-c3ccnc4[nH]ccc34)cn2)C1 [Compound 25, 2-(3-(4-(1H-pyrrolo[2,3-b]pyridin-4-yl)-1H-pyrazol-1-yl)-1-(isobutylsulfonyl)azetidin-3-yl)acetonitrile]",IC50,CYP2D6,> 10 µM
same,IC50,JAK2,0.83 nM
same,IC50,hERG potassium channel,> 30 µM
same,IC50,JAK3,> 30 nM
same,IC50,CYP3A4,> 10 µM
same,IC50,JAK1,2.29 nM
same,IC50,CYP1A2; read-out: IC50 (μM) CYP1A2,> 10 µM
same,IC50,TYK2,> 30 nM
"N#CCC1(n2cc(-c3ccnc4[nH]ccc34)cn2)CN(S(=O)(=O)CCC(F)(F)F)C1 [Compound 30, 2-(3-(4-(1H-pyrrolo[2,3-b]pyridin-4-yl)-1H-pyrazol-1-yl)-1-((3,3,3-trifluoropropyl)sulfonyl)azetidin-3-yl)acetonitrile]",IC50,JAK2,2.16 nM
same,IC50,hERG potassium channel,> 30 µM
same,IC50,JAK3,36.5 nM
same,IC50,JAK1,2.22 nM
same,AUC(0-t),[4],32.2 µg·h/mL
same,AUC(0-t),[5],3.17 µg·h/mL
same,half-life,[5],1.5 h
same,IC50,TYK2,58.2 nM

# From patent US11045455B2, “Azetidine derivative, preparation method therefor, and use thereof” (SICHUAN KELUN-BIOTECH BIOPHARMACEUTICAL CO., LTD., priority 2016, dated 2021)
